Key:
Experiment in all cases: radiometric filter-binding kinase assay, Kinase HotSpot
Settings in all cases: compound 0.5 µM; ATP 10 µM
CSF1R (human) = CSF1R (human) (UniProt P07333)
PRKCH (human) = PRKCH (human) (UniProt P24723)
CAMK2D (human) = CAMK2D (human) (UniProt Q13557)
RAF1 (human) = RAF1 (human) (UniProt P04049)
EPHB3 (human) = EPHB3 (human) (UniProt P54753)
NEK3 (human) = NEK3 (human) (UniProt P51956)
INSR (human) = INSR (human) (UniProt P06213)
NEK6 (human) = NEK6 (human) (UniProt Q9HC98)
PHKG1 (human) = PHKG1 (human) (UniProt Q16816)
PLK1 (human) = PLK1 (human) (UniProt P53350)
MAPK11 (human) = MAPK11 (human) (UniProt Q15759)
MLTK (human) = MLTK (human) (UniProt Q9NYL2)
GSK3B (human) = GSK3B (human) (UniProt P49841)
MERTK (human) = MERTK (human) (UniProt Q12866)
IRAK4 (human) = IRAK4 (human) (UniProt Q9NWZ3)
IRAK4 (human), sequence (Q9NWZ3 whole entry, looked up): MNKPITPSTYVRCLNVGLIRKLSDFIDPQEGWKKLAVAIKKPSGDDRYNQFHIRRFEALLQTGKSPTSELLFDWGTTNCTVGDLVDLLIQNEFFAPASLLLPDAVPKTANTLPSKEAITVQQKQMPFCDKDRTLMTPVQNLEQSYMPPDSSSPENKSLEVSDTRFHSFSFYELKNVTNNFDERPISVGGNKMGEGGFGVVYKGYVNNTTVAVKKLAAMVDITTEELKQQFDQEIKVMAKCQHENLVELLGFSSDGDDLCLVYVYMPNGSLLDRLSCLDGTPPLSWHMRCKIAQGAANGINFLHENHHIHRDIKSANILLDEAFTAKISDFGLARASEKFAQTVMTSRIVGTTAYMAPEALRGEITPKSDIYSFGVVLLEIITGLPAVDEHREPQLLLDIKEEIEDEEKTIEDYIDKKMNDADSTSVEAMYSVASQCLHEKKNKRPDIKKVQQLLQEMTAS

EPHA2 (human) = EPHA2 (human) (UniProt P29317)
EPHA2 (human), sequence (P29317 whole entry, looked up): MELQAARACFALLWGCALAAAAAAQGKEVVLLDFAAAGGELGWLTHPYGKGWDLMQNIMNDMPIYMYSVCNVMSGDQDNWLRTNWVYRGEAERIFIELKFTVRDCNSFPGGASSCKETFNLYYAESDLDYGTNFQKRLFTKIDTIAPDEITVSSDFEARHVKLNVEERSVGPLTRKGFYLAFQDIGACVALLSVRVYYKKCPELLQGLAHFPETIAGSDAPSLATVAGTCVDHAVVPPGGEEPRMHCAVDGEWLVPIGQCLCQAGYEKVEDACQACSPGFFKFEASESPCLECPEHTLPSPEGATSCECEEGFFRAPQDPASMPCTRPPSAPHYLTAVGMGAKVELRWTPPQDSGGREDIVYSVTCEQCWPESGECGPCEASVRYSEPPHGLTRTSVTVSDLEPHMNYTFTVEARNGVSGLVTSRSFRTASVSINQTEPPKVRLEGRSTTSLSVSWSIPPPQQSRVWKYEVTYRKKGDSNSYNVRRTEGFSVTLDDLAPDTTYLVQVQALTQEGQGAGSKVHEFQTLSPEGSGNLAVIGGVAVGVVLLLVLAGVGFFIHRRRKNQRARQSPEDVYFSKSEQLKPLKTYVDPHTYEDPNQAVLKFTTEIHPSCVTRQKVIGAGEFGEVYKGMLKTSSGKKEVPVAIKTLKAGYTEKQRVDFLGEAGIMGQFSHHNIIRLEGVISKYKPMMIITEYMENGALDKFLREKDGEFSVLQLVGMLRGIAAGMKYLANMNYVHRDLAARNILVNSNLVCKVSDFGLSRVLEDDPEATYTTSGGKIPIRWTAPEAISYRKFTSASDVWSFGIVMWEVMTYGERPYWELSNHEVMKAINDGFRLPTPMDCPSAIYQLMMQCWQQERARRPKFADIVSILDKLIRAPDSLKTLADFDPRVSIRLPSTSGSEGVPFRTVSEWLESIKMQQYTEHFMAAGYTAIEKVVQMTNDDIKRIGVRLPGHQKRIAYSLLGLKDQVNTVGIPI

SLK (human) = SLK (human) (UniProt Q9H2G2)
STK16 (human) = STK16 (human) (UniProt O75716)
STK16 (human), sequence (O75716 whole entry, looked up): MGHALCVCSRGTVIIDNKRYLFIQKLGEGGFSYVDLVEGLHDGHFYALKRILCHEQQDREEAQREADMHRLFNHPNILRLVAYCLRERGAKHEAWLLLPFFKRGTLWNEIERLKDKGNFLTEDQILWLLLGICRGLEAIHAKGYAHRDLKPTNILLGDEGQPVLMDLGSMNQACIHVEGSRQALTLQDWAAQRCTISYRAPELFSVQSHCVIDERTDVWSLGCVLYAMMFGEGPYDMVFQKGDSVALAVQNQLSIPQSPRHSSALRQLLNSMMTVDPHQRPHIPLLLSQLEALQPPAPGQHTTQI

MAP2K1 (human) = MAP2K1 (human) (UniProt Q02750)
PAK3 (human) = PAK3 (human) (UniProt O75914)
EPHA8 (human) = EPHA8 (human) (UniProt P29322)
AURKC (human) = AURKC (human) (UniProt Q9UQB9)
ERBB2 (human) = ERBB2 (human) (UniProt P04626)
ERBB2 (human), sequence (P04626 whole entry, looked up): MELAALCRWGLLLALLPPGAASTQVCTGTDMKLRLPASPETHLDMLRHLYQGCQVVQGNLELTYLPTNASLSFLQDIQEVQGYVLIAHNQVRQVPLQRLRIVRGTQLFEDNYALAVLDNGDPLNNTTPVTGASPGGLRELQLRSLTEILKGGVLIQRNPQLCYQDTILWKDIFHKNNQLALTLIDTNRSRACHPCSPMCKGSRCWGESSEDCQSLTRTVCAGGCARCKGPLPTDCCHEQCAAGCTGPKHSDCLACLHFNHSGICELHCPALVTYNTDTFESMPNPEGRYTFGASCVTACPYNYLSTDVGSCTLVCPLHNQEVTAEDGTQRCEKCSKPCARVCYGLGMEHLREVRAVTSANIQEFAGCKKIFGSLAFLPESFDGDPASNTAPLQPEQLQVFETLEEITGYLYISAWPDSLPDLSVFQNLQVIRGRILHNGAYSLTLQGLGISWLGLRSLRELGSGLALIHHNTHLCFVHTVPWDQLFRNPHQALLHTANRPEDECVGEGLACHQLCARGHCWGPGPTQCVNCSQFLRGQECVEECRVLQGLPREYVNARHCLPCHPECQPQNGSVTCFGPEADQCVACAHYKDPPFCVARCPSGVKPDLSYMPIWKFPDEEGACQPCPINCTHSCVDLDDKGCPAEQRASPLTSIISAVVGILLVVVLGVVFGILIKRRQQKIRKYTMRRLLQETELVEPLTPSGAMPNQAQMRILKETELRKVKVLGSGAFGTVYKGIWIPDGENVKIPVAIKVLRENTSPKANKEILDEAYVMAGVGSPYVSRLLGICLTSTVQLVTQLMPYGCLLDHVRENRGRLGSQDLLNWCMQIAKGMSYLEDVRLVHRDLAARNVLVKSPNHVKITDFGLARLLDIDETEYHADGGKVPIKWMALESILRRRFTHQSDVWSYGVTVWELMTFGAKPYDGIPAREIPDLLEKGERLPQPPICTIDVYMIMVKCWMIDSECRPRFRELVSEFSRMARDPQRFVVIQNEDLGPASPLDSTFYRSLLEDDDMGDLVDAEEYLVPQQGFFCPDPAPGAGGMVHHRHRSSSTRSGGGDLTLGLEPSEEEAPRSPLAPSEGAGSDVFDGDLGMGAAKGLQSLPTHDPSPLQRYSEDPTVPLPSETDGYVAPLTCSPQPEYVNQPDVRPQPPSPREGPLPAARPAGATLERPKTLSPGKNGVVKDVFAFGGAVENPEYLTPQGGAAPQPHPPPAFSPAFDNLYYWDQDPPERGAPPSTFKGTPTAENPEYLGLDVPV

CSNK1G1 (human) = CSNK1G1 (human) (UniProt Q9HCP0)
SRPK3 (human) = SRPK3 (human) (UniProt Q9UPE1)
CDK7 CCNH MNAT1 (human) = CDK7 CCNH MNAT1 (human) (UniProt P50613+P51948+P51946)
NTRK2 (human) = NTRK2 (human) (UniProt Q16620)
[1] = molecular target: JAK1 JH1 catalytic (human) (UniProt P23458)
MAPK3 (human) = MAPK3 (human) (UniProt P27361)
MAPK3 (human), sequence (P27361 whole entry, looked up): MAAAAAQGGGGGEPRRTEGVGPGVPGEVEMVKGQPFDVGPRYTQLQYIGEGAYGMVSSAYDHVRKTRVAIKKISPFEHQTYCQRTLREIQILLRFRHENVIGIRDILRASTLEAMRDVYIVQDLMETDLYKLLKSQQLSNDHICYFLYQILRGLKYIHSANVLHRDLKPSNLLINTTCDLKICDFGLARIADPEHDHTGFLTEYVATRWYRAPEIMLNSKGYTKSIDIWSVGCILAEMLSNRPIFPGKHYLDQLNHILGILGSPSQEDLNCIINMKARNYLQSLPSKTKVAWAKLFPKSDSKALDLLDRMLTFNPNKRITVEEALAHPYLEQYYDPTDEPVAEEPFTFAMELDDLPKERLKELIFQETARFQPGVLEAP

OXSR1 (human) = OXSR1 (human) (UniProt O95747)
HIPK1 (human) = HIPK1 (human) (UniProt Q86Z02)
DYRK1B (human) = DYRK1B (human) (UniProt Q9Y463)
PTK6 (human) = PTK6 (human) (UniProt Q13882)
MAPKAPK3 (human) = MAPKAPK3 (human) (UniProt Q16644)
MAPKAPK5 (human) = MAPKAPK5 (human) (UniProt Q8IW41)
PKN2 (human) = PKN2 (human) (UniProt Q16513)
NUAK2 (human) = NUAK2 (human) (UniProt Q9H093)
PIM1 (human) = PIM1 (human) (UniProt P11309)
AURKA (human) = AURKA (human) (UniProt O14965)
PRKCA (human) = PRKCA (human) (UniProt P17252)
PBK (human) = PBK (human) (UniProt Q96KB5)
AKT1 (human) = AKT1 (human) (UniProt P31749)

EPHB3 (human), sequence (P54753 whole entry, looked up): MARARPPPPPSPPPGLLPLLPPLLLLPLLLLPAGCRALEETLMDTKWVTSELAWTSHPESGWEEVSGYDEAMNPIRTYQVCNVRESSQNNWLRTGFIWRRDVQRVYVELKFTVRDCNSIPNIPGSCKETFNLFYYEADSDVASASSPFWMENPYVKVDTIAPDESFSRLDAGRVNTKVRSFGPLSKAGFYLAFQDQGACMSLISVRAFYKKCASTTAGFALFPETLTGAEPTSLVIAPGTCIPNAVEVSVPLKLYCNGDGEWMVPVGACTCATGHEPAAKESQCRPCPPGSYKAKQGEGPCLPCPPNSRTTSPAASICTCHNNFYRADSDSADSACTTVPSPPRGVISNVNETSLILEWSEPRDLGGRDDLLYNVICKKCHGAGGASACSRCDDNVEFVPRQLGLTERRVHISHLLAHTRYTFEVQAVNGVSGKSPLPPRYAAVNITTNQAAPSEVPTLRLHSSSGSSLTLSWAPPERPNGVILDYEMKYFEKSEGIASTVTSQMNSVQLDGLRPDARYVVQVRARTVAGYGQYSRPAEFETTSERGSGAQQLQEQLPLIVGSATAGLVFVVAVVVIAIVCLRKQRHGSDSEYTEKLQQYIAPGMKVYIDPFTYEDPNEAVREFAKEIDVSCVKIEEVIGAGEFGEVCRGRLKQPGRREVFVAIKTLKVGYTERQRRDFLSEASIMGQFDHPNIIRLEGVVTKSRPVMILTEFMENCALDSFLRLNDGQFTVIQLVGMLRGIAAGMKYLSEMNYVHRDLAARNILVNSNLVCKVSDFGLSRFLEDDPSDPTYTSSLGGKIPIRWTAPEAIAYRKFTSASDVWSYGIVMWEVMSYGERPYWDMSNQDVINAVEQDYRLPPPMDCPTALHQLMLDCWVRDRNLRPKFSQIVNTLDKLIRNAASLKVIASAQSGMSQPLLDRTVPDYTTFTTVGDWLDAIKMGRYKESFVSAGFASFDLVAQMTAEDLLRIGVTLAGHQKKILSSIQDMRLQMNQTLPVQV

Nc1n[nH]c2nnc(-c3c(-c4ccccc4)nn4ccccc34)cc12
residual activity (CSF1R (human)): 96.8%
residual activity (PRKCH (human)): 77.2%
residual activity (CAMK2D (human)): 96.5%
residual activity (RAF1 (human)): 95.6%
residual activity (EPHB3 (human)): 96.8%
residual activity (NEK3 (human)): 82.7%
residual activity (INSR (human)): 78.3%
residual activity (NEK6 (human)): 95.6%
residual activity (PHKG1 (human)): 101%
residual activity (PLK1 (human)): 98.1%
residual activity (MAPK11 (human)): 90%
residual activity (MLTK (human)): 101%
residual activity (GSK3B (human)): 109%
residual activity (MERTK (human)): 76.4%
residual activity (IRAK4 (human)): 99.7%
residual activity (EPHA2 (human)): 98.3%
residual activity (SLK (human)): 94%
residual activity (STK16 (human)): 108%
residual activity (MAP2K1 (human)): 94.3%
residual activity (PAK3 (human)): 100%
residual activity (EPHA8 (human)): 100%
residual activity (AURKC (human)): 96.4%
residual activity (ERBB2 (human)): 105%
residual activity (CSNK1G1 (human)): 109%
residual activity (SRPK3 (human)): 88.9%
residual activity (CDK7 CCNH MNAT1 (human)): 99%
residual activity (NTRK2 (human)): 89.7%
residual activity [1]: 104%
residual activity (MAPK3 (human)): 65.8%
residual activity (OXSR1 (human)): 102%
residual activity (HIPK1 (human)): 99.7%
residual activity (DYRK1B (human)): 101%
residual activity (PTK6 (human)): 90.8%
residual activity (MAPKAPK3 (human)): 103%
residual activity (MAPKAPK5 (human)): 97.7%
residual activity (PKN2 (human)): 98.9%
residual activity (NUAK2 (human)): 87.3%
residual activity (PIM1 (human)): 100%
residual activity (AURKA (human)): 101%
residual activity (PRKCA (human)): 87.2%
residual activity (PBK (human)): 95%
residual activity (AKT1 (human)): 98%

NC(=O)c1ccc(N(C(N)=O)c2c(F)cccc2F)nc1-c1ccc(F)cc1F
residual activity (CSF1R (human)): 109%
residual activity (PRKCH (human)): 112%
residual activity (CAMK2D (human)): 87.3%
residual activity (RAF1 (human)): 97.5%
residual activity (EPHB3 (human)): 65.8%
residual activity (NEK3 (human)): 96%
residual activity (INSR (human)): 104%
residual activity (NEK6 (human)): 90.5%
residual activity (PHKG1 (human)): 92%
residual activity (PLK1 (human)): 95.1%
residual activity (MAPK11 (human)): 22.3%
residual activity (MLTK (human)): 97.9%
residual activity (GSK3B (human)): 101%
residual activity (MERTK (human)): 114%
residual activity (IRAK4 (human)): 87.5%
residual activity (EPHA2 (human)): 89%
residual activity (SLK (human)): 90.7%
residual activity (STK16 (human)): 100%
residual activity (MAP2K1 (human)): 89%
residual activity (PAK3 (human)): 98.3%
residual activity (EPHA8 (human)): 98.7%
residual activity (AURKC (human)): 83.8%
residual activity (ERBB2 (human)): 106%
residual activity (CSNK1G1 (human)): 102%
residual activity (SRPK3 (human)): 105%
residual activity (CDK7 CCNH MNAT1 (human)): 102%
residual activity (NTRK2 (human)): 102%
residual activity [1]: 98.8%
residual activity (MAPK3 (human)): 95.2%
residual activity (OXSR1 (human)): 96.9%
residual activity (HIPK1 (human)): 100%
residual activity (DYRK1B (human)): 97.1%
residual activity (PTK6 (human)): 98.7%
residual activity (MAPKAPK3 (human)): 99.1%
residual activity (MAPKAPK5 (human)): 93.4%
residual activity (PKN2 (human)): 99.7%
residual activity (NUAK2 (human)): 98.7%
residual activity (PIM1 (human)): 98.8%
residual activity (AURKA (human)): 86.4%
residual activity (PRKCA (human)): 86%
residual activity (PBK (human)): 110%
residual activity (AKT1 (human)): 84.7%

CSc1nc(-c2ccc(F)cc2)c(-c2ccnc(NC(C)c3ccccc3)c2)[nH]1 (stereo not drawn)
residual activity (CSF1R (human)): 104%
residual activity (PRKCH (human)): 94.5%
residual activity (CAMK2D (human)): 99.3%
residual activity (RAF1 (human)): 88.9%
residual activity (EPHB3 (human)): 94%
residual activity (NEK3 (human)): 94.7%
residual activity (INSR (human)): 100%
residual activity (NEK6 (human)): 106%
residual activity (PHKG1 (human)): 91.8%
residual activity (PLK1 (human)): 99.1%
residual activity (MAPK11 (human)): 41.7%
residual activity (MLTK (human)): 85.7%
residual activity (GSK3B (human)): 97.9%
residual activity (MERTK (human)): 93.1%
residual activity (IRAK4 (human)): 82.6%
residual activity (EPHA2 (human)): 98.8%
residual activity (SLK (human)): 104%
residual activity (STK16 (human)): 95.1%
residual activity (MAP2K1 (human)): 93.9%
residual activity (PAK3 (human)): 94.5%
residual activity (EPHA8 (human)): 82.2%
residual activity (AURKC (human)): 100%
residual activity (ERBB2 (human)): 99.2%
residual activity (CSNK1G1 (human)): 67.2%
residual activity (SRPK3 (human)): 92.8%
residual activity (CDK7 CCNH MNAT1 (human)): 97.2%
residual activity (NTRK2 (human)): 88.5%
residual activity [1]: 104%
residual activity (MAPK3 (human)): 68%
residual activity (OXSR1 (human)): 88.2%
residual activity (HIPK1 (human)): 110%
residual activity (DYRK1B (human)): 84.6%
residual activity (PTK6 (human)): 96.8%
residual activity (MAPKAPK3 (human)): 107%
residual activity (MAPKAPK5 (human)): 115%
residual activity (PKN2 (human)): 76.1%
residual activity (NUAK2 (human)): 86.5%
residual activity (PIM1 (human)): 91.8%
residual activity (AURKA (human)): 99.9%
residual activity (PRKCA (human)): 108%
residual activity (PBK (human)): 109%
residual activity (AKT1 (human)): 101%

COc1ccc(-c2cnc3c(-c4ccsc4)cnn3c2)cc1
residual activity (CSF1R (human)): 53.6%
residual activity (PRKCH (human)): 111%
residual activity (CAMK2D (human)): 92%
residual activity (RAF1 (human)): 95.5%
residual activity (EPHB3 (human)): 99.4%
residual activity (NEK3 (human)): 87.7%
residual activity (INSR (human)): 92.5%
residual activity (NEK6 (human)): 99.3%
residual activity (PHKG1 (human)): 73.2%
residual activity (PLK1 (human)): 101%
residual activity (MAPK11 (human)): 84.1%
residual activity (MLTK (human)): 84.1%
residual activity (GSK3B (human)): 99.4%
residual activity (MERTK (human)): 81.2%
residual activity (IRAK4 (human)): 82.1%
residual activity (EPHA2 (human)): 95.9%
residual activity (SLK (human)): 86.3%
residual activity (STK16 (human)): 66.9%
residual activity (MAP2K1 (human)): 98.2%
residual activity (PAK3 (human)): 96.4%
residual activity (EPHA8 (human)): 90.3%
residual activity (AURKC (human)): 75.3%
residual activity (ERBB2 (human)): 102%
residual activity (CSNK1G1 (human)): 90.3%
residual activity (SRPK3 (human)): 94.1%
residual activity (CDK7 CCNH MNAT1 (human)): 100%
residual activity (NTRK2 (human)): 82.9%
residual activity [1]: 87%
residual activity (MAPK3 (human)): 99.5%
residual activity (OXSR1 (human)): 90.3%
residual activity (HIPK1 (human)): 99.8%
residual activity (DYRK1B (human)): 78.9%
residual activity (PTK6 (human)): 77.5%
residual activity (MAPKAPK3 (human)): 97.5%
residual activity (MAPKAPK5 (human)): 90.7%
residual activity (PKN2 (human)): 107%
residual activity (NUAK2 (human)): 138%
residual activity (PIM1 (human)): 97.5%
residual activity (AURKA (human)): 68%
residual activity (PRKCA (human)): 101%
residual activity (PBK (human)): 91.6%
residual activity (AKT1 (human)): 92.4%

Source: the kinase profiling compilation of Christmann-Franck et al. (2016)
